The subject of data set [1] is NCM460. Kind of data set: Cytotoxicity against human NCM460 cells assessed as reduction in cell viability incubated for 48 hrs by MTT assay. Format: cell-based. As to conditions: NCM460, 48 h. (In general: Tetrazolium dyes change colour on reduction, which living cells bring about.)
In data set [2] the target is T1, Pyruvate kinase PKM (Homo sapiens, UniProt P14618). Kind of data set: Activation of PKM2 in human HT-29 cells assessed as decrease in lactic acid production. Format: cell-based. As to conditions: filed as activator.
T1 sequence (P14618 2-531 limits assumed): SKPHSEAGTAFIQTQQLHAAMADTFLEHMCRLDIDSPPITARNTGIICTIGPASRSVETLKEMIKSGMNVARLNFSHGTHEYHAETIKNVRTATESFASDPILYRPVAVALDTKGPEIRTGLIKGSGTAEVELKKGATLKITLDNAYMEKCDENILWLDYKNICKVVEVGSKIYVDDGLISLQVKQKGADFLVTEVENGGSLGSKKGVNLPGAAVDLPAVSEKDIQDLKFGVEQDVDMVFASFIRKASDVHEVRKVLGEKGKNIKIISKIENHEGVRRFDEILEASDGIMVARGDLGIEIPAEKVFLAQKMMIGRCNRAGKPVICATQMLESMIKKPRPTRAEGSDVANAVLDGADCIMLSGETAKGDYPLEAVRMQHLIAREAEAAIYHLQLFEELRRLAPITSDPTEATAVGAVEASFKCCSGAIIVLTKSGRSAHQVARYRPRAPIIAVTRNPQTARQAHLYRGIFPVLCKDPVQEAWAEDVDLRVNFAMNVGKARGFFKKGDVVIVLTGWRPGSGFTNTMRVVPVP
Data set [3] addresses T1, Pyruvate kinase PKM. In words: Activation of PKM2 in human HT-29 cells assessed as increase in PKM2 tetramer formation at 0.6 to 1.2 uM after 48 hrs by Western blot analysis. To be noted: filed as activator, dose 0.6-1.2 µM. Format: cell-based. On the technique in general: A western blot detects proteins with antibodies after separation by electrophoresis.
For data set [4], the system named is HT-29. In words: Effect on total PKM2 protein expression in nucleus of human HT-29 cells at 0.45 to 1.8 uM after 48 hrs by Western blot analysis. The data set is classed as functional, cell-based. As to conditions: dose 0.45-1.8 µM.
The subject of data set [5] is HT-29. Kind of data set: Induction of apoptosis in human HT-29 cells assessed as decrease in caspase-3 expression at 0.45 to 1.8 uM after 48 hrs by Western blotting analysis. The data set is classed as functional, cell-based. To be noted: dose 0.45-1.8 µM.
Data set [6] deals with HT-29. Kind of data set: Antimigratory activity against human HT-29 cells. The data set is classed as functional, cell-based.
A short description of data set [7]: Selectivity index, ratio of IC50 for human NCM460 cells to IC50 for human HT-29 cells. Format: toxicity. As to conditions: NCM460 cells versus HT-29 cells, read-out: Ratio IC50.
Data set [8] concerns HT-29. In words: Inhibition of epithelial-mesenchymal transition in human HT-29 cells assessed as change in E-cadherin expression. The data set is classed as functional, cell-based.
Data set [9] addresses Pyruvate kinase PKM (Homo sapiens, UniProt P14618, C424A). Kind of data set: Activation of human PKM2-C424A expressed in Escherichia coli BL21 (DE3).
Data set [10] relates to HT-29. In words: Antitumor activity against human HT-29 cells xenografted in BALB/c mouse assessed as reduction in tumor growth at 15 to 30 mg/kg, ip administered once every 2 days for 2 weeks by vernier caliper method. The data set is classed as functional, organism-based. To be noted: dose 15-30 mg/kg.
Data set [11] has as its target T1, Pyruvate kinase PKM. In words: Inhibition of PKM2/STAT3 in human HT-29 cells assessed as reduction in bcl2 protein expression at 0.45 to 1.8 uM incubated for 48 hrs by Western blot analysis. Format: cell-based. To be noted: dose 0.45-1.8 µM.
For data set [12], the system named is HT-29. In words: Induction of apoptosis in human HT-29 cells assessed as increase in cleaved PARP expression at 0.45 to 1.8 uM after 48 hrs by Western blotting analysis. To be noted: dose 0.45-1.8 µM. Format: functional, cell-based.

Calls of active or inactive are those of the source. The calls are words filed in the database; no cut-off is given here.

Chain of Pyruvate kinase PKM (Homo sapiens, UniProt P14618, C424A) (P14618 2-531 C424A limits assumed): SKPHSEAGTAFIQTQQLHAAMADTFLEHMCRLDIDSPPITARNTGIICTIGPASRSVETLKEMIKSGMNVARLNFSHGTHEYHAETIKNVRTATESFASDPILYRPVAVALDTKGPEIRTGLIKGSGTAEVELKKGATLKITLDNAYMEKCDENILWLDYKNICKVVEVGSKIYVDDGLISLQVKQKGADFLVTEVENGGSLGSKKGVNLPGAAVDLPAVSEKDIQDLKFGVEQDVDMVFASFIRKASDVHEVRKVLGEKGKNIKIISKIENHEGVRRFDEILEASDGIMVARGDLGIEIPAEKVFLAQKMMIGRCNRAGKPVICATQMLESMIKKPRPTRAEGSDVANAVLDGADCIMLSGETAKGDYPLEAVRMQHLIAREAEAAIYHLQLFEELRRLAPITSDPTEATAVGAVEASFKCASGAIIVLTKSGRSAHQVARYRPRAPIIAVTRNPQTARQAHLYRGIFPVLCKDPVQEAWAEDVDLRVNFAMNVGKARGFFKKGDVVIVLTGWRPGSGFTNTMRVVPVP

Take `C=C1C(=O)O[C@H]2[C@H]1CC/C(COC(=O)c1ccc3nccc(Br)c3c1)=C/CC[C@@]1(C)O[C@@H]21`: in data set [1], the IC50 (in general, the midpoint of a concentration-inhibition curve) worked out at 2020 nM. The outcome in data set [2], in data set [3], in data set [4], in data set [5], in data set [6] and in data set [10] was Active. Moreover, the result in data set [12] was Active. For the same molecule, in data set [7], the selectivity ratio was 3.06. Further, the inhibition result in data set [8] is “inactive”. Also, the half-maximal activity concentration (AC50) (in general, the midpoint of the concentration-response curve, whichever way the signal moves) in [9] was 100 nM. Moreover, the inhibition result in [11] was “Active”.
